Source: patent US12084434B2 (Scorpion Therapeutics, Inc., priority 2021, dated 2024)

test system: T47D pAKT (S473), PI3Kα H1047R mutation present; assay: HTRF pAKT-T47D; conditions: Homo sapiens, T47D, 1 h, read-out: T47D pAKT IC50 (nM), T47D.1 cells, pAKT (S473) HTRF, 1 hour;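 note: assay medium was RPMI with 10% FBS and 0.2 units/ml bovine insulin, without phenol red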

| SMILES | IC50 [nM] |
| --- | --- |
| CC(C)C(NC(=O)Nc1cccc(C(N)=O)c1)c1cc2cc(F)ccc2o1 (racemic) [Compound 50, 3-(3-(1-(5-fluorobenzofuran-2-yl)-2-methylpropyl)ureido)benzamide] | > 5000 |
| Cc1c([C@@H](NC(=O)N[C@H]2CCCN(S(C)(=O)=O)C2)C(C)C)oc2ccc(F)cc12 (single isomer, unassigned) [Compound 20] | 1000 to 5000 |
| Cc1c([C@@H](NC(=O)Nc2cccc(S(C)(=N)=O)c2)C(C)C)oc2ccc(F)cc12 (single isomer, unassigned) [Compound 29] | 1000 to 5000 |
| Cc1c([C@@H](NC(=O)N[C@@H]2CCC[C@@H](C(N)=O)C2)C(C)C)oc2ccc(F)cc12 (single isomer, unassigned) [Compound 32] | > 5000 |
| COC(=O)N1CCC(NC(=O)NC(c2oc3ccc(F)cc3c2C)C(C)C)CC1 (single isomer, unassigned) [Compound 36] | > 5000 |

More lines, now with the values ahead:

| IC50 [nM] | SMILES |
| --- | --- |
| > 5000 | Cc1c(C(NC(=O)Nc2cccc(C(N)=O)c2)C(C)C)oc2ccc(F)c(F)c12 (racemic) [Compound 54, 3-(3-(1-(4,5-difluoro-3-methylbenzofuran-2-yl)-2-methylpropyl)ureido)benzamide] |
| < 1000 | Cc1c(C(NC(=O)Nc2cnc(N)nc2)C(F)(F)F)oc2ccc(F)cc12 (racemic) [Compound 68, 1-(2-aminopyrimidin-5-yl)-3-(2,2,2-trifluoro-1-(5-fluoro-3-methylbenzofuran-2-yl)ethyl)urea] |
| < 1000 | Cc1c([C@@H](NC(=O)Nc2cnc(N3C[C@H](O)[C@H]3C)nc2)C(F)(F)F)oc2ccc(F)cc12 [Compound 169] |
| < 1000 | Cc1c([C@@H](NC(=O)Nc2cnc(N3C[C@@H](O)[C@@H]3C)nc2)C(F)(F)F)oc2ccc(F)cc12 [Compound 170] |
| > 5000 | Cc1c([C@H](NC(=O)Nc2ccc3[nH]ncc3c2)C(F)(F)F)oc2c(F)cc(F)cc12 [Compound 193, 3-[(1S)-1-(5,7-difluoro-3-methyl-1-benzofuran-2-yl)-2,2,2-trifluoroethyl]-1-(1H-indazol-5-yl)urea] |
| < 1000 | Cc1c([C@@H](NC(=O)Nc2ccc3[nH]ncc3c2)C(F)(F)F)oc2c(F)cc(F)cc12 [Compound 194, 3-[(1R)-1-(5,7-difluoro-3-methyl-1-benzofuran-2-yl)-2,2,2-trifluoroethyl]-1-(1H-indazol-5-yl)urea] |
| < 1000 | Cc1c([C@@H](NC(=O)Nc2cnc(N3CC(C(C)(C)O)C3)nc2)C(F)(F)F)oc2c(F)cc(F)cc12 [Compound 205] |
| > 5000 | Cc1c([C@H](NC(=O)Nc2cnc(N3CC(C(C)(C)O)C3)nc2)C(F)(F)F)oc2c(F)cc(F)cc12 [Compound 206] |
| > 5000 | Cc1c([C@H](NC(=O)Nc2cnc(N3CC[C@@H](O)C3)nc2)C(F)(F)F)oc2c(F)cc(F)cc12 [Compound 207] |
| < 1000 | Cc1c([C@@H](NC(=O)Nc2cnc(N3CC[C@@H](O)C3)nc2)C(F)(F)F)oc2c(F)cc(F)cc12 [Compound 208] |
| < 1000 | Cc1c([C@@H](NC(=O)Nc2cnc(N3CC[C@H](O)C3)nc2)C(F)(F)F)oc2c(F)cc(F)cc12 [Compound 209] |
| > 5000 | Cc1c([C@H](NC(=O)Nc2cnc(N3CC[C@H](O)C3)nc2)C(F)(F)F)oc2c(F)cc(F)cc12 [Compound 210] |
| < 1000 | Cc1c([C@@H](NC(=O)Nc2cnc(N3CC(C(N)=O)C3)nc2)C(F)(F)F)oc2c(F)cc(F)cc12 [Compound 211] |
| > 5000 | Cc1c([C@H](NC(=O)Nc2cnc(N3CC(C(N)=O)C3)nc2)C(F)(F)F)oc2c(F)cc(F)cc12 [Compound 212] |

same assay, conditions: read-out: T47D pAKT IC50; T47D.1 cells, pAKT (S473) HTRF, 1 hour

| IC50 [nM] | SMILES |
| --- | --- |
| 1000 to 5000 | Cc1c([C@@H](NC(=O)Nc2cccc(S(C)(=N)=O)c2)C(C)C)oc2ccc(F)cc12 (single isomer, unassigned) [Compound 30] |
| > 5000 | C[C@@H]1[C@@H](O)CN1c1ncc(NC(=O)NC(c2cc3cc(F)cc(F)c3o2)C(F)(F)F)cn1 (stereo partly drawn) [Compound 173, 3-[1-(5,7-difluoro-1-benzofuran-2-yl)-2,2,2-trifluoroethyl]-1-{2-[(2R,3S)-3-hydroxy-2-methylazetidin-1-yl]pyrimidin-5-yl}urea] |
| < 1000 | C[C@@H]1[C@@H](O)CN1c1ncc(NC(=O)NC(c2cc3cc(F)cc(F)c3o2)C(F)(F)F)cn1 (stereo partly drawn) [Compound 174, 3-[1-(5,7-difluoro-1-benzofuran-2-yl)-2,2,2-trifluoroethyl]-1-{2-[(2R,3S)-3-hydroxy-2-methylazetidin-1-yl]pyrimidin-5-yl}urea] |
| < 1000 | Cc1c(C(NC(=O)Nc2cnc(N3C[C@@H](O)[C@@H]3C)nc2)C(F)(F)F)oc2c(F)cc(F)cc12 (some centres unmarked) [Compound 175] |
| > 5000 | Cc1c(C(NC(=O)Nc2cnc(N3C[C@@H](O)[C@@H]3C)nc2)C(F)(F)F)oc2c(F)cc(F)cc12 (some centres unmarked) [Compound 176] |
| > 5000 | Cc1c(C(NC(=O)Nc2ccc(N)nc2)C(F)(F)F)oc2c(F)cc(F)cc12 (centres unmarked) [Compound 181] |
| < 1000 | Cc1c(C(NC(=O)Nc2ccc(N)nc2)C(F)(F)F)oc2c(F)cc(F)cc12 (centres unmarked) [Compound 182] |
| < 1000 | Cc1c([C@@H](NC(=O)Nc2cnc(NCC(C)(C)O)nc2)C(F)(F)F)oc2c(F)cc(F)cc12 [Compound 183] |
| > 5000 | Cc1c([C@H](NC(=O)Nc2cnc(NCC(C)(C)O)nc2)C(F)(F)F)oc2c(F)cc(F)cc12 [Compound 184] |

target: T1, PI3Kα H1047R protein (p110-α H1047R complexed with truncated p85-α) (Homo sapiens, UniProt P42336, H1047R); assay: Surface Plasmon Resonance (SPR) binding, wortmannin-blocked protein; conditions: Biacore 8K, ATP site blocked with 1 μM wortmannin, 25° C.
T1 construct: The protein contained a full-length p110-α subunit harboring the H1047R mutation
Method: Surface Plasmon Resonance (SPR)
SPR experiments were performed on a Biacore 8K instrument. A biotinylated recombinant PI3Kα H1047R protein was used in this study. The protein contained a full-length p110-α subunit harboring the H1047R mutation with an N-terminal AviTag, complexed with a truncated p85-α subunit (amino acid residues 322-694). The protein was first incubated with 1 μM wortmannin for 30 min at RT to covalently block the ATP binding site, then immobilized onto a streptavidin sensor chip by flowing the protein through the sensor chip at typically 20 μg/mL concentration and 2 μL/min flow rate for 1200 seconds. Compound binding affinities were measured in the multi-cycle kinetics mode, at 90 μL/min flow rate with 90 seconds association time and 240 seconds dissociation time. The running buffer contained 50 mM Tris, pH 7.5, 150 mM NaCl, 0.01% Brij35, 1 mM DTT, 1 mM MgCl2, 0.05% Tween-20 and 2% DMSO. Temperature was maintained at 25° C. during experiments.

T1 sequence (P42336 whole entry H1047R, the tested form may be a part): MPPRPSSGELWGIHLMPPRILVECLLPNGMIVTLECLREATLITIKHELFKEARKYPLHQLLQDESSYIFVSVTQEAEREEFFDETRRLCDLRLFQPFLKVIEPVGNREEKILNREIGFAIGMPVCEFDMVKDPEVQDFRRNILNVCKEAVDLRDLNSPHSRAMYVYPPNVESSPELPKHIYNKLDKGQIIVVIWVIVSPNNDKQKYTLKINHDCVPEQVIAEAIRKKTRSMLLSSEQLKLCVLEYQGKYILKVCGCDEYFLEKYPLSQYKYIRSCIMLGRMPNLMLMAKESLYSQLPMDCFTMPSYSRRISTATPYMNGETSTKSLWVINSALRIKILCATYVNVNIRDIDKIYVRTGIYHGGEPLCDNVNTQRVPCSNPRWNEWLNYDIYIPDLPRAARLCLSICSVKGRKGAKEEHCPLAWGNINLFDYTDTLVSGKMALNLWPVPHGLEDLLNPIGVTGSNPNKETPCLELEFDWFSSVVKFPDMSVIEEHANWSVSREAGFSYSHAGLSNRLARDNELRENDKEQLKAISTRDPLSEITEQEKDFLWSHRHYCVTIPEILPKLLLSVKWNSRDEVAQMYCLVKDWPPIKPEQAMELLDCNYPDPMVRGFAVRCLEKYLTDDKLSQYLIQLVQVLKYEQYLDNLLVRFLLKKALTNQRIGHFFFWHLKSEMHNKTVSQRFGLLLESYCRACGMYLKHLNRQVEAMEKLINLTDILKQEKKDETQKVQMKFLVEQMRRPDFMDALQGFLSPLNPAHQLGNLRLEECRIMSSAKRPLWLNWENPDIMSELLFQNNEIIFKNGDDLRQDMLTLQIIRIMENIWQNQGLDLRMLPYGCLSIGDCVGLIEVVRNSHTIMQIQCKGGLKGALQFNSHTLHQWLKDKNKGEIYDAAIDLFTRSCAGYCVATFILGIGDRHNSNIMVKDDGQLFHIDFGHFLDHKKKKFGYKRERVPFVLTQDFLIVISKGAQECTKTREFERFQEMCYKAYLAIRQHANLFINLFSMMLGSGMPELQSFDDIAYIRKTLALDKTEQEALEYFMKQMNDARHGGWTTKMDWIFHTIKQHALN
T1 sequence (P27986 322-694 partner limits assumed): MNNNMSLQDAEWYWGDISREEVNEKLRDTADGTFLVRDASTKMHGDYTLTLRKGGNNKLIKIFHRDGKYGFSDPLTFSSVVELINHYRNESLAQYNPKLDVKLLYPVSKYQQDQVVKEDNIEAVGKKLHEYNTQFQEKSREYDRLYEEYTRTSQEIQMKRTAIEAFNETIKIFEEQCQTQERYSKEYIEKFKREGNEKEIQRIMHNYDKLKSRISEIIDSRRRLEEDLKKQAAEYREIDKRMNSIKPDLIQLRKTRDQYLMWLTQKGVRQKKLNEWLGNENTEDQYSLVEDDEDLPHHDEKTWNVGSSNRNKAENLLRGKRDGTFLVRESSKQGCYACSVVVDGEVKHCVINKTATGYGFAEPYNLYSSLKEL

| SMILES | Kd [nM] |
| --- | --- |
| CC(C)C(NC(=O)Nc1cccc(C(N)=O)c1)c1cc2cc(F)ccc2o1 (racemic) [Compound 50, 3-(3-(1-(5-fluorobenzofuran-2-yl)-2-methylpropyl)ureido)benzamide] | 100 to 250 |
| Cc1c([C@@H](NC(=O)N[C@H]2CC[C@H](C(N)=O)CC2)C(C)C)oc2ccc(F)cc12 (relative stereo) [Compound 42, (1R,4r)-4-(3-((R*)-1-(5-fluoro-3-methylbenzofuran-2-yl)-2-methylpropyl)ureido)cyclohexane-1-carboxamide] | ≥ 500 |
| Cc1c(C(NC(=O)Nc2ccc(S(C)(=O)=O)cc2)C(C)C)oc2ccc(F)cc12 (single isomer, unassigned) [Compound 11] | 100 to 250 |
| CNS(=O)(=O)c1ccc(NC(=O)NC(C)c2oc3ccc(F)cc3c2C)cc1 (single isomer, unassigned) [Compound 14] | ≥ 500 |
| Cc1c([C@@H](NC(=O)N[C@@H]2CCCN(S(C)(=O)=O)C2)C(C)C)oc2ccc(F)cc12 (single isomer, unassigned) [Compound 19] | ≥ 500 |
| Cc1c([C@@H](NC(=O)N[C@H]2CCCN(S(C)(=O)=O)C2)C(C)C)oc2ccc(F)cc12 (single isomer, unassigned) [Compound 20] | 100 to 250 |
| Cc1c([C@@H](NC(=O)Nc2ccc(C(N)=O)cc2)C(C)C)oc2ccc(F)cc12 (single isomer, unassigned) [Compound 21] | 100 to 250 |
| Cc1c([C@@H](NC(=O)Nc2cccc(S(C)(=N)=O)c2)C(C)C)oc2ccc(F)cc12 (single isomer, unassigned) [Compound 29] | 100 to 250 |
| Cc1c([C@@H](NC(=O)Nc2cccc(S(C)(=N)=O)c2)C(C)C)oc2ccc(F)cc12 (single isomer, unassigned) [Compound 30] | 100 to 250 |
| Cc1c([C@@H](NC(=O)N[C@@H]2CCC[C@@H](C(N)=O)C2)C(C)C)oc2ccc(F)cc12 (single isomer, unassigned) [Compound 32] | 100 to 250 |
| COC(=O)N1CCC(NC(=O)NC(c2oc3ccc(F)cc3c2C)C(C)C)CC1 (single isomer, unassigned) [Compound 36] | ≥ 500 |
| Cc1c([C@@H](C)NC(=O)Nc2ccc(C(N)=O)cc2)oc2ccc(F)cc12 [Compound 4, (R)-4-(3-(1-(5-fluoro-3-methylbenzofuran-2-yl)ethyl)ureido)benzamide] | ≥ 500 |
| Cc1c([C@@H](NC(=O)N[C@H]2CC[C@H](O)CC2)C(C)C)oc2ccc(F)cc12 [Compound 6, 1-((S)-1-(5-fluoro-3-methylbenzofuran-2-yl)-2-methylpropyl)-3-((1r,4S)-4-hydroxycyclohexyl)urea] | 250 to 500 |
| Cc1c([C@@H](NC(=O)N[C@H]2CC[C@H](O)CC2)C(C)C)oc2cccc(F)c12 [Compound 7, 1-((S)-1-(4-fluoro-3-methylbenzofuran-2-yl)-2-methylpropyl)-3-((1r, 4S)-4-hydroxycyclohexyl)urea] | ≥ 500 |
| Cc1c([C@@H](NC(=O)Nc2ccc(S(C)(=O)=O)cc2)C(C)C)oc2ccccc12 [Compound 9, (S)-1-(2-methyl-1-(3-methylbenzofuran-2-yl)propyl)-3-(4-(methylsulfonyl)phenyl)urea] | 250 to 500 |
| Cc1c([C@@H](NC(=O)Nc2ccc(S(C)(=O)=O)cc2)C2CC2)oc2ccc(F)cc12 [Compound 16, (S)-1-(cyclopropyl(5-fluoro-3-methylbenzofuran-2-yl)methyl)-3-(4-(methylsulfonyl)phenyl)urea] | ≥ 500 |
| Cc1c([C@@H](NC(=O)Nc2cccc(S(N)(=O)=O)c2)C(C)C)oc2ccc(F)cc12 [Compound 17, (S)-3-(3-(1-(5-fluoro-3-methylbenzofuran-2-yl)-2-methylpropyl)ureido)benzenesulfonamide] | 250 to 500 |
| Cc1c([C@@H](NC(=O)Nc2cccc(S(C)(=N)=O)c2)C(C)C)oc2ccc(F)cc12 (stereo partly drawn) [Compound 28, 1-((S)-1-(5-fluoro-3-methylbenzofuran-2-yl)-2-methylpropyl)-3-(3-(S-methylsulfonimidoyl)phenyl)urea] | 100 to 250 |
| Cc1c([C@@H](NC(=O)Nc2cncc(C#N)c2)C2CC2)oc2ccc(F)cc12 [Compound 46, (S)-1-(5-cyanopyridin-3-yl)-3-(cyclopropyl(5-fluoro-3-methylbenzofuran-2-yl)methyl)urea] | ≥ 500 |

Results, then the compound that gave them:

| Kd [nM] | SMILES |
| --- | --- |
| 100 to 250 | Cc1c(C(NC(=O)Nc2cccc(C(N)=O)c2)C(C)C)oc2ccc(F)c(F)c12 (racemic) [Compound 54, 3-(3-(1-(4,5-difluoro-3-methylbenzofuran-2-yl)-2-methylpropyl)ureido)benzamide] |
| < 100 | Cc1c(C(NC(=O)Nc2cnc(N)nc2)C(F)(F)F)oc2ccc(F)cc12 (racemic) [Compound 68, 1-(2-aminopyrimidin-5-yl)-3-(2,2,2-trifluoro-1-(5-fluoro-3-methylbenzofuran-2-yl)ethyl)urea] |
| ≥ 500 | COC(=O)N1CCC[C@H](NC(=O)N[C@H](c2oc3ccc(F)cc3c2C)C(C)C)C1 [Compound 55, methyl (S)-3-(3-((S)-1-(5-fluoro-3-methylbenzofuran-2-yl)-2-methylpropyl)ureido)piperidine-1-carboxylate] |
